Results from PubChem BioAssay (NCI).
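Five compound concentrations were applied to cells in 96-well plates for 48 hours; endpoints were derived by simple linear interpolation of the resulting dose-response curve. TGI: concentration producing complete growth inhibition.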

Assays:
Test in all cases: growth of human tumour cells (NCI), 48 h
[1] = test system: SK-OV-3 ovarian
[2] = test system: SN12C renal
[3] = test system: LOX IMVI melanoma
[4] = test system: SR leukemia
[5] = test system: HT29 colon
[6] = test system: DU-145 prostate
[7] = test system: ACHN renal
[8] = test system: U251 CNS
[9] = test system: A549 NSCLC
[10] = test system: SW-620 colon
[11] = test system: OVCAR-3 ovarian
[12] = test system: SNB-19 CNS
[13] = test system: MCF7 breast
[14] = test system: UACC-62 melanoma
[15] = test system: KM12 colon
[16] = test system: NCI-H23 lung
[17] = test system: MDA-MB-435
[18] = test system: 786-0 renal
[19] = test system: BT-549 breast
[20] = test system: M14 melanoma
[21] = test system: RPMI-8226 leukemia
[22] = test system: MDA-MB-231 breast
[23] = test system: PC-3 prostate
[24] = test system: NCI-H460 lung
[25] = test system: HCT-15 colon
[26] = test system: IGROV1 ovarian
[27] = test system: SK-MEL-2 melanoma
[28] = test system: UACC-257 melanoma
[29] = test system: NCI-H522 lung
[30] = test system: SF-539 CNS
[31] = test system: EKVX NSCLC
[32] = test system: T-47D breast
[33] = test system: K-562 leukemia
[34] = test system: HS 578T breast
[35] = test system: COLO 205 colon
[36] = test system: MDA-N
[37] = test system: TK-10 renal
[38] = test system: A498 renal
[39] = test system: CCRF-CEM leukemia
[40] = test system: SK-MEL-5 melanoma
[41] = test system: MOLT-4 leukemia
[42] = test system: HOP-62 NSCLC
[43] = test system: HCC-2998 colon
[44] = test system: HCT-116 colon
[45] = test system: SF-268 CNS
[46] = test system: MALME-3M melanoma
[47] = test system: CAKI-1 renal
[48] = test system: SK-MEL-28 melanoma
[49] = test system: SF-295 CNS
[50] = test system: NCI/ADR-RES ovarian
[51] = test system: OVCAR-4 ovarian
[52] = test system: UO-31 renal
[53] = test system: HL-60(TB) leukemia
[54] = test system: OVCAR-5 ovarian
[55] = test system: NCI-H226 lung
[56] = test system: OVCAR-8 ovarian

Q: For CN(CCN1CCCC1)C1CCc2cc(Cl)c(Cl)cc2C1 (stereo unspecified), which TGI [1] is on record?
A: 32.4 µM

Q: What about the TGI [2] of the same compound?
A: 30.9 µM

Q: What about the TGI [3] of the same compound?
A: 29.7 µM

Q: And the TGI [4]?
A: 74.5 µM

Q: And the TGI [5]?
A: 22.8 µM

Q: And the TGI [6]?
A: 26 µM

Q: What about the TGI [7] of the same compound?
A: 30.5 µM

Q: And the TGI [8]?
A: 32.6 µM

Q: And the TGI [9]?
A: 32.4 µM

Q: And the TGI [10]?
A: 89 µM

Q: And the TGI [11]?
A: 32.1 µM

Q: And the TGI [12]?
A: 38.7 µM

Q: What about the TGI [13] of the same compound?
A: 29 µM

Q: What about the TGI [14] of the same compound?
A: 19.4 µM

Q: And the TGI [15]?
A: 40.4 µM

Q: What about the TGI [16] of the same compound?
A: 30.1 µM

Q: What about the TGI [17] of the same compound?
A: 37.5 µM

Q: What about the TGI [18] of the same compound?
A: 28.3 µM

Q: And the TGI [19]?
A: 28.5 µM

Q: And the TGI [20]?
A: 31.5 µM

Q: What about the TGI [21] of the same compound?
A: 55.4 µM

Q: What about the TGI [22] of the same compound?
A: 34.7 µM

Q: And the TGI [23]?
A: 52.4 µM

Q: And the TGI [24]?
A: 31.5 µM

Q: What about the TGI [25] of the same compound?
A: 26.5 µM

Q: And the TGI [26]?
A: 29.3 µM

Q: And the TGI [27]?
A: 35.2 µM

Q: What about the TGI [28] of the same compound?
A: 32.4 µM

Q: What about the TGI [29] of the same compound?
A: 33 µM

Q: And the TGI [30]?
A: 31.4 µM

Q: What about the TGI [31] of the same compound?
A: 47.6 µM

Q: And the TGI [32]?
A: 22.1 µM

Q: What about the TGI [33] of the same compound?
A: > 100 µM

Q: What about the TGI [34] of the same compound?
A: 56.2 µM

Q: What about the TGI [35] of the same compound?
A: 17.2 µM

Q: What about the TGI [36] of the same compound?
A: 26.2 µM

Q: What about the TGI [37] of the same compound?
A: 30.9 µM

Q: What about the TGI [38] of the same compound?
A: 27.1 µM

Q: What about the TGI [39] of the same compound?
A: > 100 µM

Q: And the TGI [40]?
A: 24.8 µM

Q: What about the TGI [41] of the same compound?
A: > 100 µM

Q: What about the TGI [42] of the same compound?
A: 32.7 µM

Q: And the TGI [43]?
A: 18.2 µM

Q: What about the TGI [44] of the same compound?
A: 25.5 µM

Q: And the TGI [45]?
A: 34 µM

Q: What about the TGI [46] of the same compound?
A: 33.6 µM

Q: And the TGI [47]?
A: 33.6 µM

Q: And the TGI [48]?
A: 67.9 µM

Q: And the TGI [49]?
A: 29.1 µM

Q: What about the TGI [50] of the same compound?
A: 28 µM

Q: What about the TGI [51] of the same compound?
A: 51.1 µM

Q: And the TGI [52]?
A: 27.7 µM

Q: And the TGI [53]?
A: 37.4 µM

Q: And the TGI [54]?
A: 31.4 µM

Q: What about the TGI [55] of the same compound?
A: 34.8 µM

Q: And the TGI [56]?
A: 30.8 µM
